Assay results from the NIST ThermoML archive (doi:10.1021/acs.jced.8b01135).

Test: xn = mol fraction of the nth substance listed
Details: 102 kPa, Liquid; for speed of sound: Frequency=3 MHz, Single path-length method; for mass density: Vibrating tube method; for viscosity: Concentric cylinders viscometry

CCCCCCC1CCCCC1 [hexylcyclohexane] + CCCCCCCCCCCC
Details	mass density [kg/m3]	speed of sound [m/s]	viscosity [mPa·s]
288.15 K, x1 = 0.1009	757.85	1322.7	–
288.15 K, x1 = 0.1998	763.33	1328.2	–
288.15 K, x1 = 0.3001	768.99	1334.2	–
288.15 K, x1 = 0.4001	774.72	1340.2	–
288.15 K, x1 = 0.5004	780.57	1346.3	–
288.15 K, x1 = 0.5996	786.46	1352.5	–
288.15 K, x1 = 0.7005	792.54	1359.2	–
288.15 K, x1 = 0.7996	798.63	1365.9	–
288.15 K, x1 = 0.8997	804.88	1373	–
288.15 K, x1 = 1	811.34	1380.4	–
293.15 K, x1 = 0.1002	–	–	1.53
293.15 K, x1 = 0.1009	754.24	1303.2	–
293.15 K, x1 = 0.1998	759.72	1308.8	–
293.15 K, x1 = 0.201	–	–	1.58
293.15 K, x1 = 0.3	–	–	1.64
293.15 K, x1 = 0.3001	765.39	1314.7	–
293.15 K, x1 = 0.3998	–	–	1.7
293.15 K, x1 = 0.4001	771.13	1320.7	–
293.15 K, x1 = 0.5002	–	–	1.76
293.15 K, x1 = 0.5004	776.99	1326.9	–
293.15 K, x1 = 0.5996	782.88	1333.2	–
293.15 K, x1 = 0.5999	–	–	1.83
293.15 K, x1 = 0.6998	–	–	1.91
293.15 K, x1 = 0.7005	788.97	1339.8	–
293.15 K, x1 = 0.7996	795.06	1346.5	–
293.15 K, x1 = 0.8001	–	–	1.99
293.15 K, x1 = 0.8997	801.31	1353.4	–
293.15 K, x1 = 0.8998	–	–	2.08
293.15 K, x1 = 1	807.76	1360.9	2.19
298.15 K, x1 = 0.1009	750.61	1283.8	–
298.15 K, x1 = 0.1998	756.11	1289.4	–
298.15 K, x1 = 0.3001	761.78	1295.3	–
298.15 K, x1 = 0.4001	767.53	1301.3	–
298.15 K, x1 = 0.5004	773.39	1307.5	–
298.15 K, x1 = 0.5996	779.29	1313.8	–
298.15 K, x1 = 0.7005	785.38	1320.4	–
298.15 K, x1 = 0.7996	791.48	1327.1	–
298.15 K, x1 = 0.8997	797.74	1334	–
298.15 K, x1 = 1	804.19	1341.4	–
303.15 K, x1 = 0.1002	–	–	1.3
303.15 K, x1 = 0.1009	746.99	1264.6	–
303.15 K, x1 = 0.1998	752.5	1270.2	–
303.15 K, x1 = 0.201	–	–	1.34
303.15 K, x1 = 0.3	–	–	1.38
303.15 K, x1 = 0.3001	758.17	1276.1	–
303.15 K, x1 = 0.3998	–	–	1.43
303.15 K, x1 = 0.4001	763.92	1282.1	–
303.15 K, x1 = 0.5002	–	–	1.48
303.15 K, x1 = 0.5004	769.79	1288.3	–
303.15 K, x1 = 0.5996	775.7	1294.6	–
303.15 K, x1 = 0.5999	–	–	1.54
303.15 K, x1 = 0.6998	–	–	1.6
303.15 K, x1 = 0.7005	781.79	1301.2	–
303.15 K, x1 = 0.7996	787.89	1307.8	–
303.15 K, x1 = 0.8001	–	–	1.66
303.15 K, x1 = 0.8997	794.16	1314.7	–
303.15 K, x1 = 0.8998	–	–	1.74
303.15 K, x1 = 1	800.61	1322.1	1.79
313.15 K, x1 = 0.1002	–	–	1.11
313.15 K, x1 = 0.1009	739.73	1226.8	–
313.15 K, x1 = 0.1998	745.25	1232.4	–
313.15 K, x1 = 0.201	–	–	1.14
313.15 K, x1 = 0.3	–	–	1.17
313.15 K, x1 = 0.3001	750.94	1238.3	–
313.15 K, x1 = 0.3998	–	–	1.21
313.15 K, x1 = 0.4001	756.7	1244.3	–
313.15 K, x1 = 0.5002	–	–	1.25
313.15 K, x1 = 0.5004	762.59	1250.5	–
313.15 K, x1 = 0.5996	768.5	1256.8	–
313.15 K, x1 = 0.5999	–	–	1.3
313.15 K, x1 = 0.6998	–	–	1.34
313.15 K, x1 = 0.7005	774.6	1263.4	–
313.15 K, x1 = 0.7996	780.72	1270.1	–
313.15 K, x1 = 0.8001	–	–	1.4
313.15 K, x1 = 0.8997	786.99	1276.9	–
313.15 K, x1 = 0.8998	–	–	1.46
313.15 K, x1 = 1	793.43	1284.2	1.52
323.15 K, x1 = 0.1002	–	–	0.958
323.15 K, x1 = 0.1009	732.44	1189.7	–
323.15 K, x1 = 0.1998	737.97	1195.4	–
323.15 K, x1 = 0.201	–	–	0.986
323.15 K, x1 = 0.3	–	–	1.01
323.15 K, x1 = 0.3001	743.68	1201.3	–
323.15 K, x1 = 0.3998	–	–	1.05
323.15 K, x1 = 0.4001	749.46	1207.4	–
323.15 K, x1 = 0.5002	–	–	1.08
323.15 K, x1 = 0.5004	755.35	1213.6	–
323.15 K, x1 = 0.5996	761.28	1219.8	–
323.15 K, x1 = 0.5999	–	–	1.12
323.15 K, x1 = 0.6998	–	–	1.15
323.15 K, x1 = 0.7005	767.39	1226.4	–
323.15 K, x1 = 0.7996	773.52	1233.1	–
323.15 K, x1 = 0.8001	–	–	1.2
323.15 K, x1 = 0.8997	779.8	1239.8	–
323.15 K, x1 = 0.8998	–	–	1.25
323.15 K, x1 = 1	786.25	1247.1	1.3
333.15 K, x1 = 0.1002	–	–	0.833
333.15 K, x1 = 0.1009	725.11	1153.6	–
333.15 K, x1 = 0.1998	730.66	1159.3	–
333.15 K, x1 = 0.201	–	–	0.855
333.15 K, x1 = 0.3	–	–	0.88
333.15 K, x1 = 0.3001	736.38	1165.3	–
333.15 K, x1 = 0.3998	–	–	0.906
333.15 K, x1 = 0.4001	742.18	1171.3	–
333.15 K, x1 = 0.5002	–	–	0.935
333.15 K, x1 = 0.5004	748.09	1177.6	–
333.15 K, x1 = 0.5996	754.02	1183.9	–
333.15 K, x1 = 0.5999	–	–	0.966
333.15 K, x1 = 0.6998	–	–	1
333.15 K, x1 = 0.7005	760.16	1190.5	–
333.15 K, x1 = 0.7996	766.29	1197.1	–
333.15 K, x1 = 0.8001	–	–	1.04
333.15 K, x1 = 0.8997	772.58	1203.6	–
333.15 K, x1 = 0.8998	–	–	1.07
333.15 K, x1 = 1	779.05	1211	1.12
